Measurements published in ChEMBL document CHEMBL3046035, “Synthesis and biological evaluation of novel 4,5-dihydropyrazole derivatives as potent anticancer and antimicrobial agents” (Med Chem Res, 2013).
Converted amounts (≈) assume the structure as drawn.

Assays:
Candida tropicalis = experiment: Antimicrobial activity against Candida tropicalis ATCC 1369 assessed as growth inhibition after 24 hr by broth microdilution method; assay type: functional; details: ATCC 1369, 24 h
Pseudomonas aeruginosa = experiment: Antimicrobial activity against Pseudomonas aeruginosa ATCC 10145 assessed as growth inhibition after 24 hr by broth microdilution method; assay type: functional; details: ATCC 10145, 24 h
Enterococcus faecalis = experiment: Antimicrobial activity against Enterococcus faecalis ATCC 14506 assessed as growth inhibition after 24 hr by broth microdilution method; assay type: functional; details: ATCC 14506, 24 h
Klebsiella pneumoniae = experiment: Antimicrobial activity against Klebsiella pneumoniae ATCC 10031 assessed as growth inhibition after 24 hr by broth microdilution method; assay type: functional; details: ATCC 10031, 24 h
Staphylococcus aureus = experiment: Antimicrobial activity against Staphylococcus aureus ATCC 11632 assessed as growth inhibition after 24 hr by broth microdilution method; assay type: functional; details: ATCC 11632, 24 h
Bacillus subtilis = experiment: Antimicrobial activity against Bacillus subtilis ATCC 60511 assessed as growth inhibition after 24 hr by broth microdilution method; assay type: functional; details: ATCC 60511, 24 h
MCF7 = experiment: Anticancer activity against Homo sapiens (human) MCF7 cells assessed as inhibition of cell viability after 96 hr by MTT assay; assay type: functional, cell-based; details: MCF7, 96 h
A549 = experiment: Anticancer activity against Homo sapiens (human) A549 cells assessed as inhibition of cell viability after 96 hr by MTT assay; assay type: functional, cell-based; details: A549, 96 h
HeLa = experiment: Anticancer activity against Homo sapiens (human) HeLa cells assessed as inhibition of cell viability after 96 hr by MTT assay; assay type: functional, cell-based
Aspergillus niger = experiment: Antimicrobial activity against Aspergillus niger ATCC 6275 assessed as growth inhibition after 24 hr by broth microdilution method; assay type: functional; details: ATCC 6275, 24 h
A2780 = experiment: Anticancer activity against Homo sapiens (human) A2780 cells assessed as inhibition of cell viability after 96 hr by MTT assay; assay type: functional, cell-based; details: A2780, 96 h
Saccharomyces cerevisiae = experiment: Antimicrobial activity against Saccharomyces cerevisiae ATCC 9763 assessed as growth inhibition after 24 hr by broth microdilution method; assay type: functional; details: ATCC 9763, 24 h
Escherichia coli = experiment: Antimicrobial activity against Escherichia coli ATCC 10536 assessed as growth inhibition after 24 hr by broth microdilution method; assay type: functional; details: ATCC 10536, 24 h
BGC-823 = experiment: Anticancer activity against Homo sapiens (human) BGC823 cells assessed as inhibition of cell viability after 96 hr by MTT assay; assay type: functional, cell-based; details: BGC-823, 96 h

Oc1ccc(-c2csc(N3N=C(c4ccccc4)CC3c3c(F)cccc3F)n2)cc1 (stereo unspecified)
MIC (Candida tropicalis): 125 µg/mL (≈ 288 µM)
MIC (Pseudomonas aeruginosa): 62.5 µg/mL (≈ 144 µM)
MIC (Enterococcus faecalis): 125 µg/mL (≈ 288 µM)
MIC (Klebsiella pneumoniae): 16 µg/mL (≈ 36.9 µM)
MIC (Staphylococcus aureus): 16 µg/mL (≈ 36.9 µM)
MIC (Bacillus subtilis): 31.2 µg/mL (≈ 72.1 µM)
IC50 (MCF7): 3040 nM
IC50 (A549): 1570 nM
IC50 (HeLa): 7090 nM
MIC (Aspergillus niger): 16 µg/mL (≈ 36.9 µM)
IC50 (A2780): 2450 nM
MIC (Saccharomyces cerevisiae): 31.2 µg/mL (≈ 72.1 µM)
MIC (Escherichia coli): 62.5 µg/mL (≈ 144 µM)
IC50 (BGC-823): 2110 nM

NC(=S)N1N=C(c2ccccc2)CC1c1c(F)cccc1F (stereo unspecified)
MIC (Candida tropicalis): 31.2 µg/mL (≈ 98.5 µM)
MIC (Pseudomonas aeruginosa): 31.2 µg/mL (≈ 98.5 µM)
MIC (Enterococcus faecalis): 31.2 µg/mL (≈ 98.5 µM)
MIC (Klebsiella pneumoniae): 62.5 µg/mL (≈ 197 µM)
MIC (Staphylococcus aureus): 31.2 µg/mL (≈ 98.5 µM)
MIC (Bacillus subtilis): 8 µg/mL (≈ 25.2 µM)
IC50 (MCF7): 2150 nM
IC50 (A549): 2550 nM
IC50 (HeLa): 6250 nM
MIC (Aspergillus niger): 62.5 µg/mL (≈ 197 µM)
IC50 (A2780): 3620 nM
MIC (Saccharomyces cerevisiae): 125 µg/mL (≈ 394 µM)
MIC (Escherichia coli): 62.5 µg/mL (≈ 197 µM)
IC50 (BGC-823): 1840 nM

Fc1cccc(F)c1C1CC(c2ccccc2)=NN1c1nc(-c2ccc(Cl)cc2)cs1 (stereo unspecified)
MIC (Candida tropicalis): 62.5 µg/mL (≈ 138 µM)
MIC (Pseudomonas aeruginosa): 31.2 µg/mL (≈ 69.1 µM)
MIC (Enterococcus faecalis): 8 µg/mL (≈ 17.7 µM)
MIC (Klebsiella pneumoniae): 125 µg/mL (≈ 277 µM)
MIC (Staphylococcus aureus): 62.5 µg/mL (≈ 138 µM)
MIC (Bacillus subtilis): 31.2 µg/mL (≈ 69.1 µM)
IC50 (MCF7): 2760 nM
IC50 (A549): 2110 nM
IC50 (HeLa): 6240 nM
MIC (Aspergillus niger): 62.5 µg/mL (≈ 138 µM)
IC50 (A2780): 3560 nM
MIC (Saccharomyces cerevisiae): 125 µg/mL (≈ 277 µM)
MIC (Escherichia coli): 16 µg/mL (≈ 35.4 µM)
IC50 (BGC-823): 1430 nM

O=C(O)c1cn(C2CC2)c2cc(N3CCNCC3)c(F)cc2c1=O [CIPROFLOXACIN]
MIC (Pseudomonas aeruginosa): 5 µg/mL (≈ 15.1 µM)
MIC (Enterococcus faecalis): ≤ 5 µg/mL
MIC (Klebsiella pneumoniae): ≤ 1 µg/mL
MIC (Staphylococcus aureus): ≤ 5 µg/mL
MIC (Bacillus subtilis): ≤ 1 µg/mL
MIC (Escherichia coli): ≤ 1 µg/mL

O=[N+]([O-])c1ccc(-c2csc(N3N=C(c4ccccc4)CC3c3c(F)cccc3F)n2)cc1 (stereo unspecified)
MIC (Candida tropicalis): 125 µg/mL (≈ 270 µM)
MIC (Pseudomonas aeruginosa): 31.2 µg/mL (≈ 67.6 µM)
MIC (Enterococcus faecalis): 16 µg/mL (≈ 34.6 µM)
MIC (Klebsiella pneumoniae): 16 µg/mL (≈ 34.6 µM)
MIC (Staphylococcus aureus): 16 µg/mL (≈ 34.6 µM)
MIC (Bacillus subtilis): 16 µg/mL (≈ 34.6 µM)
IC50 (MCF7): 2090 nM
IC50 (A549): 1930 nM
IC50 (HeLa): 5760 nM
MIC (Aspergillus niger): 16 µg/mL (≈ 34.6 µM)
IC50 (A2780): 2260 nM
MIC (Saccharomyces cerevisiae): 125 µg/mL (≈ 270 µM)
MIC (Escherichia coli): 125 µg/mL (≈ 270 µM)
IC50 (BGC-823): 1050 nM

COc1ccc(C2N=C(N3N=C(c4ccccc4)CC3c3c(F)cccc3F)S2)cc1 (stereo unspecified)
MIC (Candida tropicalis): 8 µg/mL (≈ 18.4 µM)
MIC (Pseudomonas aeruginosa): 4 µg/mL (≈ 9.18 µM)
MIC (Enterococcus faecalis): 16 µg/mL (≈ 36.7 µM)
MIC (Klebsiella pneumoniae): 4 µg/mL (≈ 9.18 µM)
MIC (Staphylococcus aureus): 16 µg/mL (≈ 36.7 µM)
MIC (Bacillus subtilis): 4 µg/mL (≈ 9.18 µM)
IC50 (MCF7): 2040 nM
IC50 (A549): 2530 nM
IC50 (HeLa): 6490 nM
MIC (Aspergillus niger): 8 µg/mL (≈ 18.4 µM)
IC50 (A2780): 3260 nM
MIC (Saccharomyces cerevisiae): 16 µg/mL (≈ 36.7 µM)
MIC (Escherichia coli): 16 µg/mL (≈ 36.7 µM)
IC50 (BGC-823): 1230 nM

Fc1cccc(F)c1C1CC(c2ccccc2)=NN1C1=NC(c2ccc(Cl)cc2)S1 (stereo unspecified)
MIC (Candida tropicalis): 8 µg/mL (≈ 18.2 µM)
MIC (Pseudomonas aeruginosa): 62.5 µg/mL (≈ 142 µM)
MIC (Enterococcus faecalis): 125 µg/mL (≈ 284 µM)
MIC (Klebsiella pneumoniae): 16 µg/mL (≈ 36.4 µM)
MIC (Staphylococcus aureus): 31.2 µg/mL (≈ 71 µM)
MIC (Bacillus subtilis): 31.2 µg/mL (≈ 71 µM)
IC50 (MCF7): 1690 nM
IC50 (A549): 1560 nM
IC50 (HeLa): 4940 nM
MIC (Aspergillus niger): 8 µg/mL (≈ 18.2 µM)
IC50 (A2780): 2720 nM
MIC (Saccharomyces cerevisiae): 4 µg/mL (≈ 9.09 µM)
MIC (Escherichia coli): 8 µg/mL (≈ 18.2 µM)
IC50 (BGC-823): 1410 nM

Fc1cccc(F)c1C1CC(c2ccccc2)=NN1c1nc(-c2ccccc2)cs1 (stereo unspecified)
MIC (Candida tropicalis): 125 µg/mL (≈ 299 µM)
MIC (Pseudomonas aeruginosa): 62.5 µg/mL (≈ 150 µM)
MIC (Enterococcus faecalis): 8 µg/mL (≈ 19.2 µM)
MIC (Klebsiella pneumoniae): 62.5 µg/mL (≈ 150 µM)
MIC (Staphylococcus aureus): 31.2 µg/mL (≈ 74.9 µM)
MIC (Bacillus subtilis): 8 µg/mL (≈ 19.2 µM)
IC50 (MCF7): 2230 nM
IC50 (A549): 3010 nM
IC50 (HeLa): 5910 nM
MIC (Aspergillus niger): 125 µg/mL (≈ 299 µM)
IC50 (A2780): 3090 nM
MIC (Saccharomyces cerevisiae): 62.5 µg/mL (≈ 150 µM)
MIC (Escherichia coli): 31.2 µg/mL (≈ 74.9 µM)
IC50 (BGC-823): 2010 nM

Fc1cccc(F)c1C1CC(c2ccccc2)=NN1C1=NC(c2ccccc2)S1 (stereo unspecified)
MIC (Candida tropicalis): 31.2 µg/mL (≈ 77.1 µM)
MIC (Pseudomonas aeruginosa): 62.5 µg/mL (≈ 154 µM)
MIC (Enterococcus faecalis): 8 µg/mL (≈ 19.7 µM)
MIC (Klebsiella pneumoniae): 16 µg/mL (≈ 39.5 µM)
MIC (Staphylococcus aureus): 16 µg/mL (≈ 39.5 µM)
MIC (Bacillus subtilis): 31.2 µg/mL (≈ 77.1 µM)
IC50 (MCF7): 1720 nM
IC50 (A549): 2110 nM
IC50 (HeLa): 5710 nM
MIC (Aspergillus niger): 125 µg/mL (≈ 308 µM)
IC50 (A2780): 4330 nM
MIC (Saccharomyces cerevisiae): 62.5 µg/mL (≈ 154 µM)
MIC (Escherichia coli): 16 µg/mL (≈ 39.5 µM)
IC50 (BGC-823): 1970 nM

O=C(/C=C/c1c(F)cccc1F)c1ccccc1
MIC (Candida tropicalis): 62.5 µg/mL (≈ 256 µM)
MIC (Pseudomonas aeruginosa): 8 µg/mL (≈ 32.8 µM)
MIC (Enterococcus faecalis): 125 µg/mL (≈ 512 µM)
MIC (Klebsiella pneumoniae): 125 µg/mL (≈ 512 µM)
MIC (Staphylococcus aureus): 31.2 µg/mL (≈ 128 µM)
MIC (Bacillus subtilis): 125 µg/mL (≈ 512 µM)
MIC (Aspergillus niger): 62.5 µg/mL (≈ 256 µM)
MIC (Saccharomyces cerevisiae): 62.5 µg/mL (≈ 256 µM)
MIC (Escherichia coli): 125 µg/mL (≈ 512 µM)

Fc1cccc(F)c1C1CC(c2ccccc2)=NN1C1=NC(c2ccc(Cl)cc2Cl)S1 (stereo unspecified)
MIC (Candida tropicalis): 62.5 µg/mL (≈ 132 µM)
MIC (Pseudomonas aeruginosa): 125 µg/mL (≈ 264 µM)
MIC (Enterococcus faecalis): 125 µg/mL (≈ 264 µM)
MIC (Klebsiella pneumoniae): 31.2 µg/mL (≈ 65.9 µM)
MIC (Staphylococcus aureus): 125 µg/mL (≈ 264 µM)
MIC (Bacillus subtilis): 31.2 µg/mL (≈ 65.9 µM)
IC50 (MCF7): 1890 nM
IC50 (A549): 3250 nM
IC50 (HeLa): 6130 nM
MIC (Aspergillus niger): 8 µg/mL (≈ 16.9 µM)
IC50 (A2780): 4510 nM
MIC (Saccharomyces cerevisiae): 16 µg/mL (≈ 33.7 µM)
MIC (Escherichia coli): 16 µg/mL (≈ 33.7 µM)
IC50 (BGC-823): 3310 nM
